Where two headings read alike, the source gives them in different places.
Columns and labels:
[1] = Suppression of metrazol-induced convulsions; type: in vivo, male CD1 mice; conditions: mice; for ED50: Mus musculus, 0.5 h; for Metrazol (ip) ED50: 30 min
Protocol: Selected compounds of the invention were tested for their ability to reduce metrazol-induced convulsions in mice (Swinyard, E. A. J. Am. Pharm Assoc. 1949, 38, 201). Male CD1 mice, were fasted at least 16 hours, were divided into equal groups and test compounds or vehicle were administered parenterally. Water was not withheld except during the period of observations. At the time of suspected peak activity, anti-pentylenetetrazol (anti-metrazol) activity was evaluated by the subcutaneous administration of the CD90 dose of metrazol (the dose of metrazol was determined from the dose-response curve producing clonic convulsions in 90% of animals that received the corresponding vehicle for this experiment). Metrazol was dissolved in 0.9% sodium chloride solution, and its dose volume was 10 ml/kg. Animals were housed individually for observation of clonic convulsions, tonic convulsions and death for a period of 30 min. Test compounds that blocked the clonic seizure component of the convulsion in at least 50% of the animals were considered active. The biological assay was considered to be valid if the effects of a known anticonvulsant (positive control) were detected, within the same experiment. Activity was reported as percent reduction of clonic convulsions from the vehicle group. The ED50 values of active compounds were calculated by the method of probits (Finney, D. J. 1971. Probit Analysis. London: Cambridge University Press) and are listed in Tables 1 to 5.

[2] = biological target: benzodiazepine site of the GABA-A receptor; assay: Benzodiazepine Receptor Binding Assay (inhibition of 3H-flunitrazepam binding); conditions: ca. 3 nM 3H-flunitrazepam
[3] = Suppression of anxiety (punished licking, conflict test) in the adult male rat; type: in vivo, male rats
Protocol: The anxiolytic activity of selected compounds of the invention was assessed by determining their ability to release (disinhibit) behavior that had been suppressed by punishment (Vogel, J. R. et al. Psychopharmacology 1971, 21, 1). Male rats were deprived of water for 48 hours and were deprived of food for 24 hours prior to testing. After the first 24 hours of water deprivation, they were placed in the conflict chamber for a training period; wherein, they were allowed 200 unpunished licks from a bottle containing tap water. The experiment was run the next day. At the expected time of peak activity, the animals were placed in the chamber and allowed access to tap water. […] Their first lick initiates a 3-min test session. Subsequently,every 20th lick was punished by a 0.2-s shock delivered via the stainless-steel drinking-tube. Vehicle-treated control animals generally were willing to accept a median number of 3 to 8 shocks per test session. […] The Wilcoxon rank-sum test (Mann-WhitneyU-test) was used to test for an increase (p<0.05, 1-tailed) in the median number of shocks in drug-treated groups, compared to a concurrently run vehicle-treated group. The biological assay is considered to be valid if the effects of a known anxiolytic (positive control) are detected, within the same experiment. A compound was considered active if there is a significant difference in the median number of shocks tolerated between the drug-treated group and the control group. The MED was defined as the minimum dose of the drug-treatment as analyzed using the Wilcoxon rank-sum test (SAS; Statistical Analysis System, version 5.16). If the MED value is greater than 10, an active dose of the compound being tested had not been determined.

[4] = Table 4, parenteral, clonic convulsions, read-out: Antimetrazol ED50
[5] = Table 4, minimum effective dose, read-out: Conflict MED
[6] = Table 1, ip, clonic convulsions after sc CD90 metrazol, >30 = active dose not determined, read-out: Metrazol (ip) ED50
[7] = Table 1, 25° C., 10-20 min, >10,000 = not active
[8] = Table 1, ip, minimum effective dose, >10 = active dose not determined, read-out: Conflict (ip) MED
[9] = Table 1, ip, clonic convulsions after sc CD90 metrazol, >30 = active dose not determined
[10] = Table 1, ip, minimum effective dose, >10 = active dose not determined
[11] = Table 5, parenteral, clonic convulsions, read-out: Antimetrazol ED50
[12] = Table 5, minimum effective dose, read-out: Conflict MED
[13] = Table 3, parenteral, clonic convulsions, read-out: Antimetrazol ED50
[14] = Table 3, minimum effective dose, read-out: Conflict MED

Row | Molecule | ED50 [1, 6] [mg/kg] | IC50 [2, 7] [nM] | minimal effective dose [3, 8] [mg/kg] | other results
1 | O=C(Nc1ccncc1)c1c(=O)ccn2c1[nH]c1ccccc12 [compound 140] | – | – | – | ED50 [1, 4]: > 10 mg/kg; IC50 ([2]; Table 4): 260 nM; minimal effective dose [3, 5]: > 10 mg/kg
2 | O=C1CCN2C(=C1C(=O)Nc1ccc3cn[nH]c3c1)Nc1ccccc12 [compound 48] | > 30 | 350 | 10 | –
3 | Cc1ccccc1NC(=O)C1=C2Nc3ccccc3N2CCC1=O [compound 31] | > 30 | 230 | 10 | –
4 | N-(2,4-Difluorophenyl)-4-oxo-1,2,3,4-tetrahydro-6H-azepino(1,2-a)benzimidazol-5-carboxamide [CP 155] | – | 210 | – | Metrazol (ip) ED50 [1, 9]: 10 to 30 mg/kg; Conflict (ip) MED [3, 10]: > 10 mg/kg
5 | CCCCNC(=O)C1=C2Nc3ccccc3N2CCC1=O [compound 38] | > 10 | 54 | > 10 | –
6 | CN(C)c1ccc(NC(=O)C2=C3Nc4ccccc4N3CCC2=O)cc1 [compound 24] | 3 | 270 | 3 | –
7 | COc1cccc(NC(=O)C2=C3Nc4ccccc4N3CCC2=O)c1 [compound 21] | 0.3 | 26 | 5 | –
8 | O=C1CCN2C(=C1C(=O)Nc1ccccc1F)Nc1cc(Cl)ccc12 [compound 113] | 1 | 5 | < 10 | –
9 | CCN(CC)c1ccc(NC(=O)C2=C3Nc4ccccc4N3CCC2=O)cc1 [compound 71] | 3 | 1800 | > 10 | –
10 | N-(2,6-Difluorophenyl)-3-hydroxypyrido(1,2-a)benzimidazole-4-carboxamide [CP 141] | – | 140 | – | Metrazol (ip) ED50 [1, 9]: 10 mg/kg; Conflict (ip) MED [3, 10]: 10 mg/kg
11 | O=C1CCN2C(=C1C(=O)Nc1c(F)cccc1F)Nc1cc(F)ccc12 [compound 109] | 0.3 | 1.3 | 3 | –
12 | CN(C)c1ccc(NC(=O)C2=C3N(CCCC2=O)c2ccccc2N3Cc2ccccc2)cc1 [compound 151] | – | – | – | ED50 [1, 11]: > 10 mg/kg; IC50 ([2]; Table 5): 12400 nM; minimal effective dose [3, 12]: > 10 mg/kg
13 | Cn1c2ccccc2n2ccc(=O)c(C(=O)Nc3ccccc3)c12 [compound 142] | – | – | – | ED50 [1, 4]: < 1 mg/kg; IC50 ([2]; Table 4): 45 nM; minimal effective dose [3, 5]: < 1 mg/kg
14 | O=C1CCN2C(=C1C(=O)Nc1ccc(F)cc1F)Nc1ccccc12 [compound 92] | 1 | 10 | > 10 | –
15 | CN(C)c1ccc(NC(=O)C2=C3Nc4cc(Cl)ccc4N3CCC2=O)cc1 [compound 80] | 10 | 220 | > 10 | –
16 | CN1C2=C(C(=O)Nc3ccccc3F)C(=O)CCCN2c2ccccc21 [compound 147] | – | – | – | ED50 [1, 11]: > 10 mg/kg; IC50 ([2]; Table 5): 22 nM; minimal effective dose [3, 12]: > 10 mg/kg
17 | O=C1CCN2C(=C1C(=O)Nc1ccncc1)Nc1ccccc12 [compound 35] | 2 | 160 | 3 | –
18 | Cc1cc(NC(=O)C2=C3Nc4ccccc4N3CCC2=O)on1 [compound 68] | > 10 | 54 | > 10 | –

Row | Molecule | ED50 [1, 6] [mg/kg] | IC50 [2, 7] [nM] | minimal effective dose [3, 8] [mg/kg] | other results
19 | O=C1CCCN2C(=C1C(=O)Nc1ccccc1F)Nc1ccccc12 [compound 146] | – | – | – | ED50 [1, 11]: 1 to 10 mg/kg; IC50 ([2]; Table 5): 3.1 nM; minimal effective dose [3, 12]: 10 mg/kg
20 | O=C1CCN2C(=C1C(=O)Nc1ccccc1Cl)Nc1ccccc12 [compound 25] | 1 | 12 | 10 | –
21 | O=C1CCN2C(=C1C(=O)Nc1ccncc1)Nc1cc(Cl)ccc12 [compound 82] | 3 | 380 | > 10 | –
22 | O=C1CCCN2C(=C1C(=O)Nc1ccccc1F)N(Cc1ccccc1)c1ccccc12 [compound 148] | – | – | – | ED50 [1, 11]: > 10 mg/kg; IC50 ([2]; Table 5): 150 nM; minimal effective dose [3, 12]: > 10 mg/kg
23 | CCCN1C2=C(C(=O)Nc3ccccc3F)C(=O)CCN2c2ccccc21 [compound 130] | – | – | – | ED50 [1, 13]: 0.1 mg/kg; IC50 ([2]; Table 3): < 1 nM; minimal effective dose [3, 14]: < 0.3 mg/kg
24 | Cc1cnccc1NC(=O)C1=C2Nc3ccccc3N2CCC1=O [compound 77] | > 10 | 7100 | > 10 | –
25 | O=C(Nc1c(F)cccc1F)c1c(=O)ccn2c1[nH]c1ccccc12 [compound 141] | – | – | – | ED50 [1, 4]: < 0.1 mg/kg; IC50 ([2]; Table 4): < 1 nM; minimal effective dose [3, 5]: 0.3 mg/kg
26 | O=C(Nc1ccccc1F)c1c(=O)ccn2c1[nH]c1ccccc12 [compound 139] | – | – | – | ED50 [1, 4]: 0.3 mg/kg; IC50 ([2]; Table 4): 0.23 nM; minimal effective dose [3, 5]: 0.1 mg/kg
27 | O=C1CCCN2C(=C1C(=O)Nc1ccncc1)Nc1ccccc12 [compound 152] | – | – | – | ED50 [1, 11]: > 10 mg/kg; IC50 ([2]; Table 5): 1460 nM; minimal effective dose [3, 12]: < 10 mg/kg
28 | O=C1CCN2C(=C1C(=O)Nc1cccc(Cl)c1)Nc1ccccc12 [compound 6] | > 30 | 120 | > 10 | –
29 | CN1C2=C(C(=O)Nc3c(F)cc(F)cc3F)C(=O)CCN2c2ccccc21 [compound 135] | – | – | – | ED50 [1, 13]: 10 mg/kg; IC50 ([2]; Table 3): 13 nM; minimal effective dose [3, 14]: > 10 mg/kg
30 | CCN1C2=C(C(=O)Nc3ccc(N(C)C)cc3)C(=O)CCN2c2ccccc21 [compound 125] | – | – | – | ED50 [1, 13]: 0.3 mg/kg; IC50 ([2]; Table 3): 72 nM; minimal effective dose [3, 14]: > 10 mg/kg
31 | Cc1cccc2c1NC1=C(C(=O)Nc3ccccc3F)C(=O)CCN12 [compound 94] | 1 | 96 | < 10 | –
32 | CSc1cnccc1NC(=O)C1=C2Nc3ccccc3N2CCC1=O [compound 66] | 10 | 3300 | 10 | –
33 | CN(C)CCc1ccc(NC(=O)C2=C3Nc4ccccc4N3CCC2=O)cc1 [compound 115] | > 30 | 110 | 30 | –
34 | O=C1CCN2C(=C1C(=O)Sc1ccccc1)Nc1ccccc12 [compound 119] | – | – | – | ED50 ([1]; Table 2, ip, clonic convulsions, read-out: Antimetrazol (ip) ED50): > 30 mg/kg; IC50 ([2]; Table 2): 29 nM; minimal effective dose ([3]; Table 2, ip, minimum effective dose, read-out: Conflict (ip) MED): > 10 mg/kg
35 | CSc1cc(N(C)C)ccc1NC(=O)C1=C2Nc3ccccc3N2CCC1=O [compound 79] | > 10 | 660 | > 10 | –
